# Where no end group is shown, it is not given here. The star is where a group is joined. FITC = O=C1OC2(c3ccc(O)cc3Oc3cc(O)ccc32)c2ccc(NC(=S)*)cc21
# What was measured:
# PN-transfected BCA cells = assay: Immunocytochemistry, FITC-peptide binding to permeabilized PN-transfected BCA cells; format: cell-based; details: 2 μM FITC-peptide, 1 h at RT, 1% Triton X permeabilized, confocal microscope; PN-transfected vs mock
# From the text: (§1) After selecting the best binding sequence of 12-amino acids peptides, 2 types of peptide would be synthesized, plain peptide and peptide conjugated with fluorescein isothiocyanate (FITC). For the synthesis of the latter, a spacer region ([…]) would be added at the C-terminal end of the peptide and FITC was conjugated with the side chain of lysine. Finally, C-terminal amidation would be performed. The synthesis of plain and FITC-labelled anti PN peptides was ordered from Syn Peptide company (Shanghai, China). FITC-labelled anti-PN peptide tested binding affinity to non-denaturing cell lysate of transfected BCA cells and their mock transfected cells and rPN by dot blot analysis. Briefly, 12.5 μg of cell lysate or 500 ng of rPN in 1 μl was applied onto nitrocellulose membrane. The membrane was blocked with 5% BSA followed by peptide incubation at 4 °C overnight and the fluorescent signal was detected the next day using the G:BOX gel documentation system. The checking of anti-PN peptide binding to intact PN-transfected BCA cells was also performed with similar process as immunocytochemistry plus a step of cell membrane permeabilizing after fixation by incubated with 1% Triton X for 1 min at RT. […] The observation was viewed under confocal microscope using laser diode 488 nm.
# [1] = test system: non-denaturing cell lysate of PN-transfected BCA cells (MDA-MB-231 and MCF-7); assay: Dot blot, FITC-peptide binding to non-denaturing cell lysate of PN-transfected BCA cells; details: 12.5 μg cell lysate, 4 °C overnight, fluorescence, vs mock
# From the text: as §1
# rPN = assay: Dot blot, FITC-peptide binding to rPN; details: 500 ng rPN, 4 °C overnight, fluorescence
# From the text: as §1
# BSA [2] = target: T1, BSA (Bos taurus, UniProt P02769); assay: Dot blot, FITC-peptide binding to BSA; details: BSA negative control, fluorescence
# T1 sequence (P02769 25-607): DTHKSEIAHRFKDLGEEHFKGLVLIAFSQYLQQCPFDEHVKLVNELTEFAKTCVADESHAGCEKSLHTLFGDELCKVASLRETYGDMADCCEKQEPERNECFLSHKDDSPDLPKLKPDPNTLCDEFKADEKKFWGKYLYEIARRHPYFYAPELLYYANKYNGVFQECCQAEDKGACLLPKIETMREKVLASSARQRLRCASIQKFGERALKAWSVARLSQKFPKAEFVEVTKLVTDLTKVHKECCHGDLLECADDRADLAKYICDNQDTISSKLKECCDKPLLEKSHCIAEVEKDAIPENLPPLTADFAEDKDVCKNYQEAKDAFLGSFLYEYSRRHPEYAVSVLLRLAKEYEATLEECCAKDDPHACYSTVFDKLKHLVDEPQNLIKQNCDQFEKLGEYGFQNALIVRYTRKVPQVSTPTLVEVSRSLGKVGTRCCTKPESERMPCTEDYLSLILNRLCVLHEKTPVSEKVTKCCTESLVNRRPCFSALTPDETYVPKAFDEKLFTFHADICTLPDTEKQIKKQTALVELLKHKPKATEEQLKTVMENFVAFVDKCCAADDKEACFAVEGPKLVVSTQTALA
# From the text: as §1
# BSA [3] = target: T1, BSA; assay: Isothermal titration calorimetry, binding to BSA (negative control); details: ITC
# From the text: The physical properties of this peptide would be determined by an online tool (https://www.thermofisher.com) (Thermo Fisher Scientific). Structure of this peptide and the binding properties to PN would be predicted by PEP-FOLD3 [34] and pepATTRACT [35] tools from RPBS Web Portal (https://bioserv.rpbs.univ-paris-diderot.fr) using PN 3D-structure from RCSB PDB database (https://www.rcsb.org/structure/5YJG). […] The procedure followed the instructions for the machine. The results would be determined by the measurement of the exothermic energy after intermittent injection into the cell compartment and reported as the binding affinity constant (KD).
# MCF-7 cells = assay: Drug sensitivity (MTS), MCF-7; format: cell-based; details: Homo sapiens, MCF7, 48 h, MTS
# Description: (§2) Determination the IC50 of BCA cells in response to chemotherapeutic drugs was analyzed by MTS assay. The experiment started from 5 × 10^3 of BCA cells in 100 μl medium that were seeded in 96-well plates for 24 h, then media was changed with different concentrations of new chemotherapeutic drugs [doxorubicin (S1208), paclitaxel (S1150), cisplatin (S1166), 5-fluorouracil (5-FU) (S1209) and gemcitabine (S1714) that were purchased from Selleck Chemicals, Houston, TX, USA] with or without rPN and anti-PN peptide for a further 48 h. After that, cell viability was determined by the MTS assay. Combination index (CI) was calculated by IC50 of combination of drug and PN or anti-PN peptide divided by IC50 of chemotherapeutic drug alone.
# (§3) ANOVA test or Student’s t-test were applied for statistical analysis of the experiments. GraphPad Prism® version 7.04 software (GraphPad Software, San Diego, CA, USA) was used in calculation of IC50 values of chemotherapeutic drugs and PASW Statistics software version 18 (SPSS, IBM, Armonk, NY, USA) was used for other analysis. Dose-responses were compared by Holm-Sidak’s multiple comparison test. Mann-Whitney ranked-sum test was used for comparisons between normal and patient serum PN. Chi-square or Fisher’s exact test were used to determine the correlation between PN expression and clinical data in BCA patients. Kaplan-Meier Log-rank test using Kaplan-Meier Plotter online tool (https://kmplot.com/) was performed to determine the correlation between PN expression and survival time of BCA patients by online database. P-values of < 0.05 were used as statistical significance.
# MDA-MB-231 cells = assay: Drug sensitivity (MTS), MDA-MB-231; format: cell-based; details: Homo sapiens, MDA-MB-231, 48 h, MTS
# Description: as §2, §3
molecule,measurement,setting,value
FITC-labelled anti-PN peptide (TFATHGKHWAAPGGGSCK(FITC)-NH2; N-terminus assumed; SMILES C[C@H](NC(=O)[C@H](Cc1c[nH]c2ccccc12)NC(=O)[C@H](Cc1c[nH]cn1)NC(=O)[C@H](CCCCN)NC(=O)CNC(=O)[C@H](Cc1c[nH]cn1)NC(=O)[C@@H](NC(=O)[C@H](C)NC(=O)[C@H](Cc1ccccc1)NC(=O)[C@@H](N)[C@@H](C)O)[C@@H](C)O)C(=O)N[C@@H](C)C(=O)N1CCC[C@H]1C(=O)NCC(=O)NCC(=O)NCC(=O)N[C@@H](CO)C(=O)N[C@@H](CS)C(=O)N[C@@H](CCCCNC(=S)Nc1ccc2c(c1)C(=O)OC21c2ccc(O)cc2Oc2cc(O)ccc21)C(N)=O),Peptide binding in permeabilized cells,PN-transfected BCA cells,confirmed by immunocytochemistry staining in permeabilized cells
same,Peptide binding to PN-transfected cell lysate,[1],higher in both PN-transfected BCA cells compared with their mock control cells
same,Peptide binding to rPN,rPN,markedly increased in rPN
same,Peptide binding to BSA,BSA [2],no signal in BSA
TFATHGKHWAAP [anti-PN peptide],Binding affinity to BSA,BSA [3],could not be determined in BSA
COc1cccc2c1C(=O)c1c(O)c3c(c(O)c1C2=O)C[C@@](O)(C(=O)CO)C[C@@H]3O[C@H]1C[C@H](N)[C@H](O)[C@H](C)O1 [doxorubicin],IC50,"MCF-7 cells; doxorubicin with anti-PN peptide, PN-transfected MCF-7, 48 h, P-value = 0.007",970 nM
same,IC50,"MCF-7 cells; doxorubicin, PN-transfected MCF-7, 48 h, P-value = 0.013 vs mock",1440 nM
same,IC50,"MCF-7 cells; doxorubicin, anti-PN peptide treated MCF-7 without rPN, 48 h, P-value = 0.558",1040 nM
same,IC50,"MCF-7 cells; doxorubicin, mock transfected MCF-7, 48 h",1070 nM
same,IC50,"MCF-7 cells; doxorubicin, rPN + anti-PN peptide treated MCF-7, 48 h, P-value = 0.038",1270 nM
same,IC50,"MCF-7 cells; doxorubicin, rPN-treated MCF-7, 48 h, P-value = 0.007",1460 nM
same,IC50,"MCF-7 cells; doxorubicin, untreated control MCF-7 (rPN treatment experiment), 48 h",1050 nM
same,IC50,"MDA-MB-231 cells; doxorubicin with anti-PN peptide, PN-transfected MDA-MB-231, 48 h, P-value = 0.002",797 nM
same,IC50,"MDA-MB-231 cells; doxorubicin with anti-PN peptide, mock transfected MDA-MB-231, 48 h, P-value = 0.932",706 nM
same,IC50,"MDA-MB-231 cells; doxorubicin, PN-transfected MDA-MB-231, 48 h, P-value < 0.001 vs mock",1090 nM
same,IC50,"MDA-MB-231 cells; doxorubicin, anti-PN peptide treated MDA-MB-231 without rPN, 48 h, P-value = 0.870",896 nM
same,IC50,"MDA-MB-231 cells; doxorubicin, mock transfected MDA-MB-231, 48 h",710 nM
same,IC50,"MDA-MB-231 cells; doxorubicin, rPN + anti-PN peptide treated MDA-MB-231, 48 h, P-value = 0.038",1300 nM
same,IC50,"MDA-MB-231 cells; doxorubicin, rPN-treated MDA-MB-231, 48 h, P-value = 0.024",1990 nM
same,IC50,"MDA-MB-231 cells; doxorubicin, untreated control MDA-MB-231 (rPN treatment experiment), 48 h",845 nM
